Assay results as given in patent publication US12655107B2 (The United States of America, as represented by the …, priority 2018, dated 2026).
Where two headings read alike, the source gives them in different places.

Columns and labels:
CAKI-1 = assay: NCI-60 cytotoxicity; type: cell-based, human; conditions: NCI-60 Renal Cancer, 48 h
Experimental: (§1) Cell growth inhibition (GI50 in Table 3) was calculated relative to cells without compound treatment and the time zero control.
(§2) Regarding Table 8, according to the NCI established procedures, the cells were incubated with 67 or 50 for 48 hours and stained with sulforhodamine B dye.

CCRF-CEM = assay: NCI-60 cytotoxicity; type: cell-based, human; conditions: NCI-60 Leukemia, 48 h
Experimental: as §1, §2

BT-549 = assay: NCI-60 cytotoxicity; type: cell-based, human; conditions: NCI-60 Breast Cancer, 48 h
Experimental: as §1, §2

PC-3 = assay: NCI-60 cytotoxicity; type: cell-based, human; conditions: NCI-60 Prostate Cancer, 48 h
Experimental: as §1, §2

NCI-H322M = assay: NCI-60 cytotoxicity; type: cell-based, human; conditions: NCI-60 Non-Small Cell Lung Cancer, 48 h
Experimental: as §1, §2

NCI-H226 = assay: NCI-60 cytotoxicity; type: cell-based, human; conditions: NCI-60 Non-Small Cell Lung Cancer, 48 h
Experimental: as §1, §2

SF-539 = assay: NCI-60 cytotoxicity; type: cell-based, human; conditions: NCI-60 CNS Cancer, 48 h
Experimental: as §1, §2

RXF 393 = assay: NCI-60 cytotoxicity; type: cell-based, human; conditions: NCI-60 Renal Cancer, 48 h
Experimental: as §1, §2

A549/ATCC = assay: NCI-60 cytotoxicity; type: cell-based, human; conditions: NCI-60 Non-Small Cell Lung Cancer, 48 h
Experimental: as §1, §2

MDA-MB-435 = assay: NCI-60 cytotoxicity; type: cell-based, human; conditions: NCI-60 Melanoma, 48 h
Experimental: as §1, §2

LOX IMVI = assay: NCI-60 cytotoxicity; type: cell-based, human; conditions: NCI-60 Melanoma, 48 h
Experimental: as §1, §2

A498 = assay: NCI-60 cytotoxicity; type: cell-based, human; conditions: NCI-60 Renal Cancer, 48 h
Experimental: as §1, §2

ACHN = assay: NCI-60 cytotoxicity; type: cell-based, human; conditions: NCI-60 Renal Cancer, 48 h
Experimental: as §1, §2

SR = assay: NCI-60 cytotoxicity; type: cell-based, human; conditions: NCI-60 Leukemia, 48 h
Experimental: as §1, §2

OVCAR-3 = assay: NCI-60 cytotoxicity; type: cell-based, human; conditions: NCI-60 Ovarian Cancer, 48 h
Experimental: as §1, §2

TK-10 = assay: NCI-60 cytotoxicity; type: cell-based, human; conditions: NCI-60 Renal Cancer, 48 h
Experimental: as §1, §2

SF-295 = assay: NCI-60 cytotoxicity; type: cell-based, human; conditions: NCI-60 CNS Cancer, 48 h
Experimental: as §1, §2

M14 = assay: NCI-60 cytotoxicity; type: cell-based, human; conditions: NCI-60 Melanoma, 48 h
Experimental: as §1, §2

MDA-MB-231/ATCC = assay: NCI-60 cytotoxicity; type: cell-based, human; conditions: NCI-60 Breast Cancer, 48 h
Experimental: as §1, §2

HCC-2998 = assay: NCI-60 cytotoxicity; type: cell-based, human; conditions: NCI-60 Colon Cancer, 48 h
Experimental: as §1, §2

UACC-257 = assay: NCI-60 cytotoxicity; type: cell-based, human; conditions: NCI-60 Melanoma, 48 h
Experimental: as §1, §2

OVCAR-5 = assay: NCI-60 cytotoxicity; type: cell-based, human; conditions: NCI-60 Ovarian Cancer, 48 h
Experimental: as §1, §2

KM12 = assay: NCI-60 cytotoxicity; type: cell-based, human; conditions: NCI-60 Colon Cancer, 48 h
Experimental: as §1, §2

MOLT-4 = assay: NCI-60 cytotoxicity; type: cell-based, human; conditions: NCI-60 Leukemia, 48 h
Experimental: as §1, §2

NCI-H522 = assay: NCI-60 cytotoxicity; type: cell-based, human; conditions: NCI-60 Non-Small Cell Lung Cancer, 48 h
Experimental: as §1, §2

HS 578T = assay: NCI-60 cytotoxicity; type: cell-based, human; conditions: NCI-60 Breast Cancer, 48 h
Experimental: as §1, §2

SNB-75 = assay: NCI-60 cytotoxicity; type: cell-based, human; conditions: NCI-60 CNS Cancer, 48 h
Experimental: as §1, §2

HCT116 = assay: NCI-60 cytotoxicity; type: cell-based, human; conditions: NCI-60 Colon Cancer, 48 h
Experimental: as §1, §2

HT29 = assay: NCI-60 cytotoxicity; type: cell-based, human; conditions: NCI-60 Colon Cancer, 48 h
Experimental: as §1, §2

NCI-H460 = assay: NCI-60 cytotoxicity; type: cell-based, human; conditions: NCI-60 Non-Small Cell Lung Cancer, 48 h
Experimental: as §1, §2

NCI-H23 = assay: NCI-60 cytotoxicity; type: cell-based, human; conditions: NCI-60 Non-Small Cell Lung Cancer, 48 h
Experimental: as §1, §2

COLO 205 = assay: NCI-60 cytotoxicity; type: cell-based, human; conditions: NCI-60 Colon Cancer, 48 h
Experimental: as §1, §2

U251 = assay: NCI-60 cytotoxicity; type: cell-based, human; conditions: NCI-60 CNS Cancer, 48 h
Experimental: as §1, §2

EKVX = assay: NCI-60 cytotoxicity; type: cell-based, human; conditions: NCI-60 Non-Small Cell Lung Cancer, 48 h
Experimental: as §1, §2

786-0 = assay: NCI-60 cytotoxicity; type: cell-based, human; conditions: NCI-60 Renal Cancer, 48 h
Experimental: as §1, §2

IGROV1 = assay: NCI-60 cytotoxicity; type: cell-based, human; conditions: NCI-60 Ovarian Cancer, 48 h
Experimental: as §1, §2

RPMI-8226 = assay: NCI-60 cytotoxicity; type: cell-based, human; conditions: NCI-60 Leukemia, 48 h
Experimental: as §1, §2

K-562 = assay: NCI-60 cytotoxicity; type: cell-based, human; conditions: NCI-60 Leukemia, 48 h
Experimental: as §1, §2

UO-31 = assay: NCI-60 cytotoxicity; type: cell-based, human; conditions: NCI-60 Renal Cancer, 48 h
Experimental: as §1, §2

[1] = biological target: T1, Top1-DNA covalent cleavage complexes in HCT116 cells (Homo sapiens, UniProt P11387); assay: Immunocomplex of enzyme to DNA (ICE) assay; type: cell-based; conditions: HCT116, 25, 50 and 100 μM
T1 construct: endogenous in cells; host or cells: HCT116 (human colon cancer)
T1 sequence (P11387 2-765 limits assumed, one chain of several): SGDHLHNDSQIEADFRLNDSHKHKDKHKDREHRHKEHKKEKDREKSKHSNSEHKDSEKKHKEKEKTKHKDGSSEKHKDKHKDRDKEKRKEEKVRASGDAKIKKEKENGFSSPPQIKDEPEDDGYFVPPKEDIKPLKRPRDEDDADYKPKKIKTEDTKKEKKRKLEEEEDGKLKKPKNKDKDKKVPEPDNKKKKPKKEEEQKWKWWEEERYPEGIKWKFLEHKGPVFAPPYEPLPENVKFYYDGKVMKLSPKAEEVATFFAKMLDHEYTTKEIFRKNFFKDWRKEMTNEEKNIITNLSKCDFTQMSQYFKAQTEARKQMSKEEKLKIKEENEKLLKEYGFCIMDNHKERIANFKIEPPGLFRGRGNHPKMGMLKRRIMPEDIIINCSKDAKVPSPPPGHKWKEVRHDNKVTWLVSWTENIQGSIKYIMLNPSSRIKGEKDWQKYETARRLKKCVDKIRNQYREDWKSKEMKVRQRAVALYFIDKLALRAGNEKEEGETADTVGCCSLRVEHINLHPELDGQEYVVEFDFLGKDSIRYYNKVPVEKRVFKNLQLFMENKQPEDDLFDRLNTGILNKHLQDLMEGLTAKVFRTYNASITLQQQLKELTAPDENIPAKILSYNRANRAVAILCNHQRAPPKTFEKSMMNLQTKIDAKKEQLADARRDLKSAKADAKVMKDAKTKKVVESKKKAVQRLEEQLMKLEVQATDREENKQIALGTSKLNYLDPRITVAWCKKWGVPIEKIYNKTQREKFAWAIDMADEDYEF

SMILES: COc1cc2c(=O)n(CCN)c3c4cc5c(cc4ccc3c2cc1OC)OCO5 [Compound 67, 12-(2-aminoethyl)-2,3-dimethoxy-[1,3]dioxolo[4′,5′:4,5]benzo[1,2-c]phenanthridin-13(12-H)-one]
- GI50 (CAKI-1): 0.295 µM
- GI50 (CCRF-CEM): 0.15 µM
- GI50 (BT-549): 0.918 µM
- GI50 (PC-3): 0.532 µM
- GI50 (NCI-H322M): 0.99 µM
- GI50 (NCI-H226): 1.34 µM
- GI50 (SF-539): 1.06 µM
- GI50 (RXF 393): 0.929 µM
- GI50 (A549/ATCC): 0.584 µM
- GI50 (MDA-MB-435): 0.759 µM
- GI50 (LOX IMVI): 0.246 µM
- GI50 (A498): 1.23 µM
- GI50 (ACHN): 0.366 µM
- GI50 (SR): 0.0907 µM
- GI50 (OVCAR-3): 0.826 µM
- GI50 (TK-10): 1.35 µM
- GI50 (SF-295): 0.279 µM
- GI50 (M14): 0.324 µM
- GI50 (MDA-MB-231/ATCC): 1.28 µM
- GI50 (HCC-2998): 1.02 µM
- GI50 (UACC-257): 1.9 µM
- GI50 (OVCAR-5): 1.2 µM
- GI50 (KM12): 1.1 µM
- GI50 (MOLT-4): 0.0633 µM
- GI50 (NCI-H522): 0.0875 µM
- GI50 (HS 578T): 1.96 µM
- GI50 (SNB-75): 0.596 µM
- GI50 (HCT116): 0.285 µM
- GI50 (HT29): 0.168 µM
- GI50 (NCI-H460): 0.23 µM
- GI50 (NCI-H23): 0.451 µM
- GI50 (COLO 205): 0.29 µM
- GI50 (U251): 0.26 µM
- GI50 (EKVX): 1.36 µM
- GI50 (786-0): 0.464 µM
- GI50 (IGROV1): 0.5 µM
- GI50 (RPMI-8226): 0.257 µM
- GI50 (K-562): 0.161 µM
- GI50 (UO-31): 0.35 µM

SMILES: CNCCn1c(=O)c2cc(OC)c(OC)cc2c2ccc3cc4c(cc3c21)OCO4 [Compound 50, 2,3-dimethoxy-12-(2-(methylamino)ethyl)-[1,3]dioxolo[4′5′:4,5]benzo[1,2-c]phenanthridin-13(12H)-one]
- median lethal dose (LD50) (i.p., dose to kill half of mice after 7 days): 192 mg/kg
- mouse survival (mouse, in vivo, ip, 192 mg/kg): three mice survived
- mouse survival (single i.p. dose 122.9 mg/kg, 7 days): all mice survived
- mouse survival (single i.p. dose 153.6 mg/kg, 7 days): four mice survived
- mouse survival (single i.p. dose 240 mg/kg, 7 days): two mice survived
- mouse survival (single i.p. dose 300 mg/kg, 7 days): All mice died within 5 days
- GI50 (CAKI-1): 0.0644 µM
- GI50 (CCRF-CEM): 0.0201 µM
- GI50 (BT-549): 0.202 µM
- GI50 (PC-3): 0.112 µM
- GI50 (NCI-H322M): 0.147 µM
- GI50 (NCI-H226): 0.172 µM
- GI50 (SF-539): 0.124 µM
- GI50 (RXF 393): 0.16 µM
- GI50 (A549/ATCC): 0.0948 µM
- GI50 (MDA-MB-435): 0.118 µM
- GI50 (LOX IMVI): 0.0389 µM
- GI50 (A498): 0.127 µM
- GI50 (ACHN): 0.0856 µM
- GI50 (SR): 0.0173 µM
- GI50 (OVCAR-3): 0.166 µM
- GI50 (TK-10): 0.316 µM
- GI50 (SF-295): 0.0346 µM
- GI50 (M14): 0.0581 µM
- GI50 (MDA-MB-231/ATCC): 0.362 µM
- GI50 (HCC-2998): 0.156 µM
- GI50 (UACC-257): 0.122 µM
- GI50 (OVCAR-5): 0.183 µM
- GI50 (KM12): 0.238 µM
- GI50 (MOLT-4): 0.0234 µM
- GI50 (NCI-H522): 0.0274 µM
- GI50 (HS 578T): 0.904 µM
- GI50 (SNB-75): 0.0885 µM
- GI50 (HCT116): 0.0515 µM
- GI50 (HT29): 0.0508 µM
- GI50 (NCI-H460): 0.0212 µM
- GI50 (NCI-H23): 0.0906 µM
- GI50 (COLO 205): 0.0605 µM
- GI50 (U251): 0.0394 µM
- GI50 (EKVX): 0.202 µM
- GI50 (786-0): 0.0703 µM
- GI50 (IGROV1): 0.145 µM
- GI50 (RPMI-8226): 0.0763 µM
- GI50 (K-562): 0.0394 µM
- GI50 (UO-31): 0.104 µM
- induction of cellular Top1cc [1]: induced the formation of cellular TOP1 cc in a dose-dependent manner
